Measurements published in patent US11376298B2, “Composition comprising natural substances having healing, repellent and biocidal properties for the treatment and the cure of external wounds” (priority 2004, dated 2022).

Columns and labels:
cheloid = test: Cheloid therapy on wounds in the distal part of horse's limb; assay type: in vivo, horses; conditions: composition versus Salicylic acid therapy
From the text: Cheloid is a disturbance of the granulation tissue due to a hyperproliferation of the fibroblasts. These cells stop the mitogenic activity when enough extracellular matrix fills the wound crater. Collagen fibrils of the matrix start to retract anchoring the wounds edges to fibroblasts. When the collagen fibrils start to retract, fibroblasts stop to secrete the matrix (antimitogenic effect). Most of them undergo apoptosis (cell death without inducing an inflammatory reaction) and quiescence (sleeping fibroblasts), while only a small part undergo the transformation into myofibroblasts (which play a role in the last phases of the wound healing). Newly formed capillary vessels are absorbed and disappear in synchrony with the fibroblasts. Keratinocytes on the top of the healed area start to re-epithelialize the area and the process is complete: In horse, researchers have identified two orders of problems responsible for the high incidence of cheloid pathology: 1) exaggerated tension stimuli at the levels of the distal part of the horses legs, due too scarcity of muscle mass and hypodermal fat and 2) slow capacity of the keratinocytes to obtain the re-epithelialization of the granulated area maybe due to a scarcity of the signals responsible for the antimitogenic effects on fibroblasts. […]

[1] = EPA (USA) and EEA (UE); cited from earlier work

Row | SMILES | time of healing / effectiveness in comparison of therapies (cheloid) | class of toxicity [1]
1 | O=C(O)c1ccccc1O [Salicylic acid, salicylic acid] | not as effective as the therapy with the present composition | –
2 | C/C=C(\C)C(=O)O[C@H]1C[C@@H](OC(C)=O)[C@@]2(C(=O)OC)CO[C@H]3[C@@H](O)[C@@](C)([C@]45O[C@@]4(C)[C@@H]4C[C@H]5O[C@@H]5OC=C[C@@]54O)[C@H]4[C@]1(CO[C@]4(O)C(=O)OC)[C@@H]32 [Azadirachtin A] | – | IVth
